Measured values published in ChEMBL document CHEMBL4622939, “Synthesis and anti-proliferative activity of a novel 1,2,3-triazole tethered chalcone acetamide derivatives” (Bioorg Med Chem Lett, 2020).

What was measured:
Assay type in all cases: functional, cell-based
A549 = experiment: Antiproliferative activity against human A549 cells assessed as cell growth inhibition by MTT assay
HeLa = experiment: Antiproliferative activity against human HeLa cells assessed as cell growth inhibition by MTT assay
MCF7 = experiment: Antiproliferative activity against human MCF7 cells assessed as cell growth inhibition by MTT assay
SK-N-SH = experiment: Antiproliferative activity against human SK-N-SH cells assessed as cell growth inhibition by MTT assay

Work on `CCCCCCCCCCn1cc(/C=C/C(=O)c2ccc(N)cc2)nn1` yielded an IC50 (A549) of 35.6 µM, an IC50 (HeLa) of 73.5 µM and an IC50 (MCF7) of 52.6 µM. For the same compound, the IC50 (SK-N-SH) was 83.4 µM.
`CCCCCCCCn1cc(/C=C/C(=O)c2ccc(NC(=O)CN3CCN(c4ccc([N+](=O)[O-])cc4)CC3)cc2)nn1` was tested, and the IC50 (A549) was 45.4 µM, the IC50 (HeLa) was 30.2 µM and the IC50 (MCF7) was 49.1 µM. The IC50 (SK-N-SH) was 51.4 µM.
In the case of `CCCCCCCCn1cc(/C=C/C(=O)c2ccc(NC(=O)CN3CCN(c4ccccc4OC)CC3)cc2)nn1`, the IC50 (A549) is reported as 34 µM, the IC50 (HeLa) is reported as 26.8 µM and the IC50 (MCF7) is reported as 30 µM. For the same compound, the IC50 (SK-N-SH) was 21.5 µM.
For `O=C(CN1CCN(c2ccccc2)CC1)Nc1ccc(C(=O)/C=C/c2cn(Cc3ccc(Br)cc3)nn2)cc1`, the IC50 (A549) was 42.1 µM, the IC50 (HeLa) was 79.7 µM and the IC50 (MCF7) was 49.2 µM. The IC50 (SK-N-SH) was 72.4 µM.
`CCCCCCCCn1cc(/C=C/C(=O)c2ccc(N)cc2)nn1` showed an IC50 (A549) of 26.9 µM, an IC50 (HeLa) of 26.9 µM and an IC50 (MCF7) of 31 µM. It also gave an IC50 (SK-N-SH) of 28.8 µM.
In the case of `CC(C)(C)OC(=O)N1CCN(CC(=O)Nc2ccc(C(=O)/C=C/c3cn(Cc4ccc(Br)cc4)nn3)cc2)CC1`, the IC50 (A549) is reported as 38.4 µM, the IC50 (HeLa) is reported as 18.9 µM and the IC50 (MCF7) is reported as 31 µM. It also gave an IC50 (SK-N-SH) of 25.8 µM.
With `CCCCCCCCCCn1cc(/C=C/C(=O)c2ccc(NC(=O)CN3CCN(c4ccccc4F)CC3)cc2)nn1` the IC50 (A549) was 57 µM, the IC50 (HeLa) was 47.8 µM and the IC50 (MCF7) was 40.4 µM. The IC50 (SK-N-SH) was 34.4 µM.
`CCCCCCCCn1cc(/C=C/C(=O)c2ccc(NC(=O)CN3CCN(c4ccccc4)CC3)cc2)nn1` gave an IC50 (A549) of 52.4 µM, an IC50 (HeLa) of 33.8 µM and an IC50 (MCF7) of 31.9 µM. The IC50 (SK-N-SH) was 41.4 µM.
Work on `CCCCCCCCn1cc(/C=C/C(=O)c2ccc(NC(=O)CN3CCN(C(=O)OC(C)(C)C)CC3)cc2)nn1` yielded an IC50 (A549) of 43.3 µM, an IC50 (HeLa) of 32 µM and an IC50 (MCF7) of 98.4 µM. The IC50 (SK-N-SH) was 38 µM.
`O=C(CN1CCN(c2ccc([N+](=O)[O-])cc2)CC1)Nc1ccc(C(=O)/C=C/c2cn(Cc3ccc(Br)cc3)nn2)cc1` gave an IC50 (A549) of 45.5 µM, an IC50 (HeLa) of 26.6 µM and an IC50 (MCF7) of 31.6 µM. For the same compound, the IC50 (SK-N-SH) was 26.4 µM.
Compound `CCCCCCCCCCn1cc(/C=C/C(=O)c2ccc(NC(=O)CBr)cc2)nn1` has an IC50 (A549) of 9.74 µM, an IC50 (HeLa) of 7.41 µM and an IC50 (MCF7) of 9.76 µM. The IC50 (SK-N-SH) was 8.68 µM.
For `CCCCCCCCCCn1cc(/C=C/C(=O)c2ccc(NC(=O)CN3CCC(Cc4ccccc4)CC3)cc2)nn1`, the IC50 (A549) was 67.7 µM, the IC50 (HeLa) was 71.7 µM and the IC50 (MCF7) was 55.2 µM. It also gave an IC50 (SK-N-SH) of 33.3 µM.
Compound `O=C(CN1CCN(c2ccccc2F)CC1)Nc1ccc(C(=O)/C=C/c2cn(Cc3ccc(Br)cc3)nn2)cc1` has an IC50 (A549) of 14.7 µM, an IC50 (HeLa) of 9.12 µM and an IC50 (MCF7) of 11.3 µM. It also gave an IC50 (SK-N-SH) of 12.8 µM.
`CCCCCCCCn1cc(/C=C/C(=O)c2ccc(NC(=O)CBr)cc2)nn1` was tested, and the IC50 (A549) was 11.6 µM, the IC50 (HeLa) was 8.42 µM and the IC50 (MCF7) was 12.9 µM. For the same compound, the IC50 (SK-N-SH) was 8.46 µM.
In the case of `O=C(CN1CCC(Cc2ccccc2)CC1)Nc1ccc(C(=O)/C=C/c2cn(Cc3ccc(Br)cc3)nn2)cc1`, the IC50 (A549) is reported as 40 µM, the IC50 (HeLa) is reported as 41.9 µM and the IC50 (MCF7) is reported as 54.5 µM. The IC50 (SK-N-SH) was 42.9 µM.
`CCCCCCCCn1cc(/C=C/C(=O)c2ccc(NC(=O)CN3CCN(c4ccccc4F)CC3)cc2)nn1` showed an IC50 (A549) of 47.1 µM, an IC50 (HeLa) of 33.8 µM and an IC50 (MCF7) of 68.6 µM. It also gave an IC50 (SK-N-SH) of 60.3 µM.
`CCCCCCCCCCn1cc(/C=C/C(=O)c2ccc(NC(=O)CN3CCN(c4ccccc4)CC3)cc2)nn1` was tested, and the IC50 (A549) was 52.1 µM, the IC50 (HeLa) was 59.1 µM and the IC50 (MCF7) was > 100 µM. It also gave an IC50 (SK-N-SH) of 39.5 µM.
`CCCCCCCCCCn1cc(/C=C/C(=O)c2ccc(NC(=O)CN3CCN(C(=O)OC(C)(C)C)CC3)cc2)nn1` was tested, and the IC50 (A549) was 45.4 µM, the IC50 (HeLa) was 30.2 µM and the IC50 (MCF7) was 40 µM. The IC50 (SK-N-SH) was 77.8 µM.
`Nc1ccc(C(=O)/C=C/c2cn(Cc3ccc(Br)cc3)nn2)cc1` gave an IC50 (A549) of 15.8 µM, an IC50 (HeLa) of 16.4 µM and an IC50 (MCF7) of 25.3 µM. The IC50 (SK-N-SH) was 25.2 µM.
For `O=C(CBr)Nc1ccc(C(=O)/C=C/c2cn(Cc3ccc(Br)cc3)nn2)cc1`, the IC50 (A549) was 8.67 µM, the IC50 (HeLa) was 7.95 µM and the IC50 (MCF7) was 10.1 µM. It also gave an IC50 (SK-N-SH) of 8.3 µM.
`COc1ccccc1N1CCN(CC(=O)Nc2ccc(C(=O)/C=C/c3cn(Cc4ccc(Br)cc4)nn3)cc2)CC1` showed an IC50 (A549) of 34 µM, an IC50 (HeLa) of 26.4 µM and an IC50 (MCF7) of 36.8 µM. It also gave an IC50 (SK-N-SH) of 28 µM.
With `CCCCCCCCCCn1cc(/C=C/C(=O)c2ccc(NC(=O)CN3CCN(c4ccc([N+](=O)[O-])cc4)CC3)cc2)nn1` the IC50 (A549) was 64.5 µM, the IC50 (HeLa) was 65.9 µM and the IC50 (MCF7) was 44.4 µM. For the same compound, the IC50 (SK-N-SH) was 40.9 µM.
Work on `CCCCCCCCCCn1cc(/C=C/C(=O)c2ccc(NC(=O)CN3CCN(c4ccccc4OC)CC3)cc2)nn1` yielded an IC50 (A549) of 62.5 µM, an IC50 (HeLa) of 50.8 µM and an IC50 (MCF7) of 44.8 µM. For the same compound, the IC50 (SK-N-SH) was 87.6 µM.
`CCCCCCCCn1cc(/C=C/C(=O)c2ccc(NC(=O)CN3CCC(Cc4ccccc4)CC3)cc2)nn1` was tested, and the IC50 (A549) was 43.8 µM, the IC50 (HeLa) was 78.6 µM and the IC50 (MCF7) was 52.6 µM. The IC50 (SK-N-SH) was 57 µM.
With `COc1cccc2c1C(=O)c1c(O)c3c(c(O)c1C2=O)C[C@@](O)(C(=O)CO)C[C@@H]3O[C@H]1C[C@H](N)[C@H](O)[C@H](C)O1` [DOXORUBICIN] the IC50 (A549) was 3.24 µM, the IC50 (HeLa) was 2.78 µM and the IC50 (MCF7) was 3.7 µM. It also gave an IC50 (SK-N-SH) of 2.85 µM.
